# Results taken from US20180353500A1, “ADMINISTRATION OF DEUTERATED CFTR POTENTIATORS” (Vertex Pharmaceuticals (Europe) Limited, priority 2015, published 2018).
# Read-outs that look alike come from different tables or passages of the source.
# Test: Phase 1 single ascending dose (SAD) clinical trial: pharmacokinetics, safety and tolerability
# Assay type: in vivo, human
# Conditions: for AUC(0-inf): read-out: AUC0-inf, mean; for concentration at 24 h: read-out: C24 hr, mean
# Description: Ten healthy male and female volunteers were enrolled in a single ascending dose study of 3 doses of CTP-656 (75, 150 and 300 mg), with a cross-over comparison of 150 mg CTP-656 and 150 mg Kalydeco® (the trade name of ivacaftor) (FIG. 5). Doses of CTP-656 were administered as an aqueous suspension, and Kalydeco was administered as a tablet. All doses of CTP-656 and Kalydeco were administered within 30 minutes after the start of a high-fat containing breakfast. There was a 7 day washout between doses. The objective of the study was to compare the pharmacokinetics of single ascending doses (75, 150, and 300 mg) of CTP-656, to compare the pharmacokinetics of a single dose of 150 mg CTP-656 and 150 mg Kalydeco and to assess the safety and tolerability of CTP-656.
# [1] = both sexes, human, in vivo, 75 mg single oral dose, after high-fat breakfast
# [2] = both sexes, human, in vivo, 150 mg single oral dose, after high-fat breakfast, CTP-656 aqueous suspension, Kalydeco tablet
# [3] = both sexes, human, in vivo, 300 mg single oral dose, after high-fat breakfast
# [4] = both sexes, human, plasma, 150 mg single oral dose, after high-fat breakfast, CTP-656 aqueous suspension, Kalydeco tablet
smiles,measurement,setting,value
[2H]C([2H])([2H])C(c1cc(C(C)(C)C)c(NC(=O)c2c[nH]c3ccccc3c2=O)cc1O)(C([2H])([2H])[2H])C([2H])([2H])[2H] [CTP-656],"CL/F, mean","75 mg single oral dose, after high-fat breakfast",4.9 L/h
same,relationship between dose and exposure,"75 mg, 150 mg and 300 mg, log-log regression analysis",greater than dose proportional
same,AUC0-inf relative to that of Kalydeco tablets,150 mg single oral dose each,~3.5 fold
same,C24 hr relative to that of Kalydeco tablets,150 mg single oral dose each,4.2 fold
same,CL/F relative to that of Kalydeco,150 mg single oral dose each,~30%
same,Cmax relative to that of Kalydeco tablets,150 mg single oral dose each,~2 fold
same,"Ratio of CTP-656 to Kalydeco, AUC0-24 hr",150 mg single oral dose each,2.8
same,"Ratio of CTP-656 to Kalydeco, C12 hr",150 mg single oral dose each,3.2
same,"Ratio of CTP-656 to Kalydeco, C24 hr",150 mg single oral dose each,4.2
same,"Ratio of CTP-656 to Kalydeco, Cmax",150 mg single oral dose each,2.0
same,"Ratio of CTP-656 to Kalydeco, T1/2",150 mg single oral dose each,1.3
same,"CL/F, mean","150 mg single oral dose, after high-fat breakfast, CTP-656 aqueous suspension, Kalydeco tablet",3.8 L/h
same,"CL/F, mean","300 mg single oral dose, after high-fat breakfast",3.2 L/h
same,differences in safety assessments between CTP-656 and Kalydeco,"CTP-656 75, 150 or 300 mg vs Kalydeco 150 mg",no clinically significant differences
same,pharmacokinetic profile compared to Kalydeco,"Phase 1 cross-over comparison, 150 mg",superior pharmacokinetic profile
same,half-life,"both sexes, human, in vivo, oral, 300 mg, across single doses of 75, 150 and 300 mg, read-out: apparent terminal half-life",14 to 17 h
same,half-life,"both sexes, human, in vivo, po, 75 mg, 75 mg single oral dose, after high-fat breakfast, read-out: T1/2, mean (converted)",14.1 h
same,half-life,"both sexes, human, in vivo, po, 150 mg, 150 mg single oral dose, after high-fat breakfast, CTP-656 aqueous suspension, Kalydeco tablet, read-out: T1/2, mean (converted)",15 h
same,half-life,"both sexes, human, in vivo, po, 300 mg, 300 mg single oral dose, after high-fat breakfast, read-out: T1/2, mean (converted)",17.3 h
same,Cmax,[1],838 ng/mL
same,Tmax,"both sexes, human, in vivo, 75 mg single oral dose, after high-fat breakfast, healthy volunteers, read-out: Tmax, median",5 h
same,AUC(0-inf),[1],16600 ng·h/mL
same,concentration at 24 h,[1],270 ng/mL
same,Cmax,[2],2210 ng/mL
same,AUC(0-inf),[2],44900 ng·h/mL
same,concentration at 24 h,[2],712 ng/mL
same,Tmax,"both sexes, human, in vivo, 150 mg single oral dose, after high-fat breakfast, CTP-656 aqueous suspension, Kalydeco tablet, read-out: Tmax, median",5 h
same,Cmax,[3],4970 ng/mL
same,AUC(0-inf),[3],105000 ng·h/mL
same,concentration at 24 h,[3],1540 ng/mL
same,Tmax,"both sexes, human, in vivo, 300 mg single oral dose, after high-fat breakfast, read-out: Tmax, median",5 h
same,half-life,"both sexes, human, plasma, po, 150 mg, 150 mg single oral dose, after high-fat breakfast, CTP-656 aqueous suspension, Kalydeco tablet, read-out: T1/2, mean (converted)",15 h
same,Cmax,[4],2210 ng/mL
same,concentration at 24 h,[4],712 ng/mL
same,AUC(0-t),"both sexes, human, plasma, 150 mg single oral dose, n = 9, read-out: AUC0-24 hr, mean",27300 ng·h/mL
same,concentration at 12 h,"both sexes, human, plasma, 150 mg single oral dose, n = 9, read-out: C12 hr, mean",1310 ng/mL
same,Tmax,"both sexes, human, plasma, 150 mg single oral dose, n = 9, read-out: Tmax, range",5 to 10 h
same,tolerability,"single oral doses following a high-fat meal, CTP-656 75, 150, 300 mg, Kalydeco 150 mg",generally well tolerated
